From patent publication US8871753B2, “Macrocyclic compounds and their use as kinase inhibitors” (Incyte Corporation, priority 2008, dated 2014) come the findings set out here.

Structures can show the parent of a compound that is named as a salt. Where two headings read alike, the source gives them in different places.

Holding throughout (type): biochemical
Experiment [1] concerns the target T1, human JAK3 (a.a. 781-1124) (Homo sapiens, UniProt P52333).
T1 construct: JAK3 (a.a. 781-1124); His tag (N); made in house; host or cells: insect cells (baculovirus)
Put plainly: In vitro JAK kinase assay (HTRF, phosphorylation of a biotinylated peptide), JAK3. As to the method:
(§1) The catalytic activity of JAK1, JAK2 or JAK3 was assayed by measuring the phosphorylation of a biotinylated peptide. The phosphorylated peptide was detected by homogenous time resolved fluorescence (HTRF). […] The ATP concentration in the reactions was 90 μM for JAK1, 30 μM for JAK2 and 3 μM for JAK3. Reactions were carried out at room temperature for 1 hr and then stopped with 20 μL 45 mM EDTA, 300 nM SA-APC, 6 nM Eu-Py20 in assay buffer (Perkin Elmer, Boston, Mass.). Binding to the Europium labeled antibody took place for 40 minutes and HTRF signal was measured on a Fusion plate reader (Perkin Elmer, Boston, Mass.).
(§2) The catalytic activity of JAK1, JAK2 or JAK3 was assayed by measuring the phosphorylation of a biotinylated peptide. The phosphorylated peptide was detected by homogenous time resolved fluorescence (HTRF). […] Reactions were carried out at room temperature for 1 hr and then stopped with 20 μL 45 mM EDTA, 300 nM SA-APC, 6 nM Eu-Py20 in assay buffer (Perkin Elmer, Boston, Mass.). Binding to the Europium labeled antibody took place for 40 minutes and HTRF signal was measured on a Fusion plate reader (Perkin Elmer, Boston, Mass.).

The next experiment concerns the target TYK2 (Homo sapiens, UniProt P29597). Put plainly: TYK2 kinase inhibition (Table A1).
For experiment [2], the target named is T2, human JAK2 (a.a. 828-1132) (Homo sapiens, UniProt O60674).
T2 construct: JAK2 (a.a. 828-1132); His tag (N); made in house; host or cells: insect cells (baculovirus)
T2 sequence (O60674 828-1132): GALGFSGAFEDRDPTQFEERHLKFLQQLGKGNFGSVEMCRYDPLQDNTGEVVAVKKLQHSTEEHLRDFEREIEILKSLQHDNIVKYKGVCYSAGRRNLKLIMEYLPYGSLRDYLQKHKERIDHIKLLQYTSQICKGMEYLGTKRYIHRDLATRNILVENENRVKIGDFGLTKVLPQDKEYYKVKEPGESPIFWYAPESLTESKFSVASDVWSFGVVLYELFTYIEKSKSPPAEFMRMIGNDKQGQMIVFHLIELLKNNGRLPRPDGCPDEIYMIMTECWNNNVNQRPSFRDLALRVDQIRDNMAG
Put plainly: In vitro JAK kinase assay (HTRF, phosphorylation of a biotinylated peptide), JAK2. As to the method: as §1, §2

Experiment [3] has as its target T3, human JAK1 (a.a. 837-1142) (Homo sapiens, UniProt P23458).
T3 construct: human JAK1 (a.a. 837-1142); His tag (N); made in house; host or cells: insect cells (baculovirus)
Put plainly: In vitro JAK kinase assay (HTRF, phosphorylation of a biotinylated peptide), JAK1. The conditions noted are these: read-out: JAK1 IC50. How it is done: as §1, §2

T1 sequence (P52333 781-1124): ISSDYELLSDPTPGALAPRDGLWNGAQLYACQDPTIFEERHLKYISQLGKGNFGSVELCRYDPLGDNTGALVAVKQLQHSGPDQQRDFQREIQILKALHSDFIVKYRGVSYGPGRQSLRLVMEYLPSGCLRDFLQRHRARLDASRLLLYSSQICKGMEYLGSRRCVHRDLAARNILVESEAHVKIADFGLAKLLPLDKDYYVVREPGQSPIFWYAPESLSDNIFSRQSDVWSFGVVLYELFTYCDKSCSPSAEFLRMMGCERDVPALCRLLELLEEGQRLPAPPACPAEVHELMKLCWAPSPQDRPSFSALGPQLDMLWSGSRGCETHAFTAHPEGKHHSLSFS
T3 sequence (P23458 849-1154): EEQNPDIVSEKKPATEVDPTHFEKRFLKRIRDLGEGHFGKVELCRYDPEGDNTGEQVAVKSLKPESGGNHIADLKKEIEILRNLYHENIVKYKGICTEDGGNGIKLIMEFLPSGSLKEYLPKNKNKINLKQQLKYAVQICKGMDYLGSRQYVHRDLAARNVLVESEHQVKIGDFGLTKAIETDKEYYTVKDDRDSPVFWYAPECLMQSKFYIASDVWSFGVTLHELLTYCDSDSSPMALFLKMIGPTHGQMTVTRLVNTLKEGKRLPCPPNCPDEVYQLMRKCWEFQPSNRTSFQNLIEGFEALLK
Chain of TYK2 (P29597 whole entry): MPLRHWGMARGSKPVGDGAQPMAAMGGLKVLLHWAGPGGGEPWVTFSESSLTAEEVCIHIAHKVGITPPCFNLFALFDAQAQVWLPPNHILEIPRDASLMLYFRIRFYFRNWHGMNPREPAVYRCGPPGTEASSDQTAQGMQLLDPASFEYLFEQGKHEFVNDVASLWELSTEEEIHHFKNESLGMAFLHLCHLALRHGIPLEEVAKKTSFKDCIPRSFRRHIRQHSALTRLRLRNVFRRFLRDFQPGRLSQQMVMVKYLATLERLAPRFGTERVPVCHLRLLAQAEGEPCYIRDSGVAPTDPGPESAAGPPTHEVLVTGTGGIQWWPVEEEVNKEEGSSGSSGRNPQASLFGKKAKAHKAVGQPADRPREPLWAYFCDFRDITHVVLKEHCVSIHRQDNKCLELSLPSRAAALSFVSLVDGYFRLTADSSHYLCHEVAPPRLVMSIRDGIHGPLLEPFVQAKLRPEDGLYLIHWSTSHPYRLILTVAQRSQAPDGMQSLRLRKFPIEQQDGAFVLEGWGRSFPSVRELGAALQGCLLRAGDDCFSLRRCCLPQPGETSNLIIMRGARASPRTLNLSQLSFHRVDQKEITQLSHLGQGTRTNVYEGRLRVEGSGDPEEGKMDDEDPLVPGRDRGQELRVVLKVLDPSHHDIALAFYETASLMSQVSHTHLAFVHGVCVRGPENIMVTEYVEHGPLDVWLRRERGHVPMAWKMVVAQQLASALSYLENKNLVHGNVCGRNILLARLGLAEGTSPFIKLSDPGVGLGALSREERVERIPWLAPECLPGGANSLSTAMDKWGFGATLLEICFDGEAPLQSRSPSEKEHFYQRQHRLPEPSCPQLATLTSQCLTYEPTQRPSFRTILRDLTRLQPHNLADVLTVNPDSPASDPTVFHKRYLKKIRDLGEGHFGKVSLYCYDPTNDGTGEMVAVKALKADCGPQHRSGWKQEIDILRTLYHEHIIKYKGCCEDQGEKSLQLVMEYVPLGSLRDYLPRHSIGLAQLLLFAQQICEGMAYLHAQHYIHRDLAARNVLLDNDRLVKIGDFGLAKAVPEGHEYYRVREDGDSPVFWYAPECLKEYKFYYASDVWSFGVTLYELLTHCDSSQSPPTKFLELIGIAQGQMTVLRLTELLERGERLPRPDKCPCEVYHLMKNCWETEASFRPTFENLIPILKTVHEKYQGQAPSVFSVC

As to `COc1ccc2cc1Nc1nc(ncc1Cl)Nc1cccc(c1)CC2` [Example A25, 6-Chloro-10-methoxy-2,4,8,22-tetraazatetracyclo[14.3.1.1(3,7).1(9,13)]docosa-1(20),3(22),4,6,9(21),10,12,16,18-nonaene trifluoroacetate], the IC50 in experiment [1] (method AA1 (3 μM ATP) or AA2 (1000 μM ATP), not stated per value) was found to be 14 nM; against TYK2, 122 nM; in experiment [2] (method AA1 (30 μM ATP) or AA2 (1000 μM ATP), not stated per value), 21 nM; in experiment [3] (method AA1 (90 μM ATP) or AA2 (1000 μM ATP), not stated per value), 38 nM.
In the case of `O=C(Nc1ccc2cc1CCc1cccc(c1)Nc1ncc(Cl)c(n1)N2)c1nc2ccccc2s1` [Example B74, N-[6-Chloro-2,4,8,22-tetraazatetracyclo[14.3.1.1(3,7).1(9,13)]docosa-1(20), 3(22),4,6,9(21),10,12,16,18-nonaen-12-yl]-1,3-benzothiazole-2-carboxamide trifluoroacetate], the IC50 (in experiment [1] (Table B1); against TYK2 (Table B1); in experiment [3] (Table B1)) was > 1000 nM throughout.
In the case of `Cn1cc(C(=O)N2CC[C@@H](CC(=O)Nc3ccc4cc3CCc3cncc(c3)Nc3ncc(Cl)c(n3)N4)C2)cn1` [Example D122, N-[6-Chloro-2,4,8,18,22-pentaazatetracyclo[14.3.1.1(3,7).1(9,13)]docosa-1(20),3(22),4,6,9(21),10,12,16,18-nonaen-12-yl]-2-{(3S)-1-[(1-methyl-1H-pyrazol-4-yl)carbonyl]pyrrolidin-3-yl}acetamide bis(trifluoroacetate)], the values for the half-maximal inhibitory concentration (IC50) in experiment [2] (Table D1) and in experiment [3] (Table D1) were 500 nM and 43 nM, respectively.
On the same counts, the results for `CS(=O)(=O)N1CC[C@@H](CC(=O)Nc2ccc3cc2CCc2cncc(c2)Nc2ncc(Cl)c(n2)N3)C1` [Example D127, N-[6-Chloro-2,4,8,18,22-pentaazatetracyclo[14.3.1.1(3,7).1(9,13)]docosa-1(20),3(22),4,6,9(21),10,12,16,18-nonaen-12-yl]-2-[(3S)-1-(methylsulfonyl)pyrrolidin-3-yl]acetamide bis(trifluoroacetate)] are 199 nM and 12 nM.
Taken in the same sequence, the figures for `O=C(C[C@H]1CCN(C(=O)c2nc[nH]n2)C1)Nc1ccc2cc1CCc1cncc(c1)Nc1ncc(Cl)c(n1)N2` [Example D128, N-[6-Chloro-2,4,8,18,22-pentaazatetracyclo[14.3.1.1(3,7).1(9,13)]docosa-1(20),3(22),4,6,9(21),10,12,16,18-nonaen-12-yl]-2-[(3R)-1-(1H-1,2,4-triazol-3-ylcarbonyl)pyrrolidin-3-yl]acetamide bis(trifluoroacetate)] were 199 nM and 21 nM.
On the same counts, the results for `O=C(C[C@H]1CCN(C(=O)c2c[nH]nn2)C1)Nc1ccc2cc1CCc1cncc(c1)Nc1ncc(Cl)c(n1)N2` [Example D129-a, N-[6-Chloro-2,4,8,18,22-pentaazatetracyclo[14.3.1.1(3,7).1(9,13)]docosa-1(20),3(22),4,6,9(21),10,12,16,18-nonaen-12-yl]-2-[(3R)-1-(1H-1,2,3-triazol-4-ylcarbonyl)pyrrolidin-3-yl]acetamide bis(trifluoroacetate)] are 84 nM and 15 nM.
Regarding `O=C(C[C@H]1CCN(C(=O)c2cn[nH]c2)C1)Nc1ccc2cc1CCc1cncc(c1)Nc1ncc(Cl)c(n1)N2` [Example D129-b, N-[6-Chloro-2,4,8,18,22-pentaazatetracyclo[14.3.1.1(3,7).1(9,13)]docosa-1(20),3(22),4,6,9(21),10,12,16,18-nonaen-12-yl]-2-[(3R)-1-(1H-pyrazol-4-ylcarbonyl)pyrrolidin-3-yl]acetamide bis(trifluoroacetate)], the results for the IC50 in experiment [2] (Table D1) and in experiment [3] (Table D1) were 600 nM and 33 nM, respectively.
On the same counts, the results for `O=C(C[C@@H]1CCN(C(=O)c2nc[nH]n2)C1)Nc1ccc2cc1CCc1cncc(c1)Nc1ncc(Cl)c(n1)N2` [Example D131, N-[6-Chloro-2,4,8,18,22-pentaazatetracyclo[14.3.1.1(3,7).1(9,13)]docosa-1(20),3(22),4,6,9(21),10,12,16,18-nonaen-12-yl]-2-[(3S)-1-(1H-1,2,4-triazol-3-ylcarbonyl)pyrrolidin-3-yl]acetamide bis(trifluoroacetate)] are 125 nM and 8.6 nM.
Taken in the same sequence, the figures for `O=C(C[C@@H]1CCN(C(=O)c2c[nH]nn2)C1)Nc1ccc2cc1CCc1cncc(c1)Nc1ncc(Cl)c(n1)N2` [Example D132, N-[6-Chloro-2,4,8,18,22-pentaazatetracyclo[14.3.1.1(3,7).1(9,13)]docosa-1(20),3(22),4,6,9(21),10,12,16,18-nonaen-12-yl]-2-[(3S)-1-(1H-1,2,3-triazol-4-ylcarbonyl)pyrrolidin-3-yl]acetamide bis(trifluoroacetate)] were 43 nM and 3.2 nM.
On the same counts, the results for `O=C(C[C@@H]1CCN(C(=O)c2cn[nH]c2)C1)Nc1ccc2cc1CCc1cncc(c1)Nc1ncc(Cl)c(n1)N2` [Example D133, N-[6-Chloro-2,4,8,18,22-pentaazatetracyclo[14.3.1.1(3,7).1(9,13)]docosa-1(20),3(22),4,6,9(21),10,12,16,18-nonaen-12-yl]-2-[(3S)-1-(1H-pyrazol-4-ylcarbonyl)pyrrolidin-3-yl]acetamide bis(trifluoroacetate)] are 900 nM and 73 nM.
On to `O=C(C[C@@H]1CCN(C(=O)c2cc[nH]n2)C1)Nc1ccc2cc1CCc1cncc(c1)Nc1ncc(Cl)c(n1)N2` [Example D134, N-[6-Chloro-2,4,8,18,22-pentaazatetracyclo[14.3.1.1(3,7).1(9,13)]docosa-1(20),3(22),4,6,9(21),10,12,16,18-nonaen-12-yl]-2-[(3S)-1-(1H-pyrazol-3-ylcarbonyl)pyrrolidin-3-yl]acetamide bis(trifluoroacetate)], for which the IC50 in experiment [2] (Table D1) was determined as 357 nM; in experiment [3] (Table D1), 44 nM.
Taken in the same sequence, the figures for `Cc1cc(C(=O)N2CCC[C@H](CC(=O)Nc3ccc4cc3CCc3cncc(c3)Nc3ncc(Cl)c(n3)N4)C2)no1` [Example D209, N-[6-Chloro-2,4,8,18,22-pentaazatetracyclo[14.3.1.1(3,7).1(9,13)]docosa-1(20),3(22),4,6,9(21),10,12,16,18-nonaen-12-yl]-2-{(3R)-1-[(5-methylisoxazol-3-yl)carbonyl]piperidin-3-yl}acetamide bis(trifluoroacetate)] were 462 nM and 65 nM.
Taken in the same sequence, the figures for `O=C1c2ccccc2C(=O)N1CCS(=O)(=O)Nc1ccc2cc1CCc1cncc(c1)Nc1ncc(Cl)c(n1)N2` [Example D210, N-[6-Chloro-2,4,8,18,22-pentaazatetracyclo[14.3.1.1(3,7).1(9,13)]docosa-1(20),3(22),4,6,9(21),10,12,16,18-nonaen-12-yl]-2-(1,3-dioxo-1,3-dihydro-2H-isoindol-2-yl)ethanesulfonamide bis(trifluoroacetate)] were 14 nM and 1 nM.
On to `O=C(C[C@@H]1CCCN(c2nc3ccccc3s2)C1)Nc1ccc2cc1CCc1cncc(c1)Nc1ncc(Cl)c(n1)N2` [Example D211, 2-[(3S)-1-(1,3-Benzothiazol-2-yl)piperidin-3-yl]-N-[6-chloro-2,4,8,18,22-pentaazatetracyclo[14.3.1.1(3,7).1(9,13)]docosa-1(20),3(22),4,6,9(21),10,12,16,18-nonaen-12-yl]acetamide tris(trifluoroacetate)], for which the IC50 in experiment [2] (Table D1) stood at 160 nM; in experiment [3] (Table D1), 4.2 nM.
On the same counts, the results for `O=C(C[C@H]1CCCN(c2nc3ccccc3s2)C1)Nc1ccc2cc1CCc1cncc(c1)Nc1ncc(Cl)c(n1)N2` [Example D212, 2-[(3R)-1-(1,3-Benzothiazol-2-yl)piperidin-3-yl]-N-[6-chloro-2,4,8,18,22-pentaazatetracyclo[14.3.1.1(3,7).1(9,13)]docosa-1(20),3(22),4,6,9(21),10,12,16,18-nonaen-12-yl]acetamide tris(trifluoroacetate)] are > 1000 nM and 64 nM.
On the same counts, the results for `O=C(C[C@H]1CCCN(c2nc3cccnc3o2)C1)Nc1ccc2cc1CCc1cncc(c1)Nc1ncc(Cl)c(n1)N2` [Example D214, N-[6-Chloro-2,4,8,18,22-pentaazatetracyclo[14.3.1.1(3,7).1(9,13)]docosa-1(20),3(22),4,6,9(21),10,12,16,18-nonaen-12-yl]-2-[(3R)-1-[1,3]oxazolo[5,4-b]pyridin-2-ylpiperidin-3-yl]acetamide tris(trifluoroacetate)] are > 1000 nM and 12 nM.
In the case of `c1cc2cc(c1)Nc1ccnc(n1)Nc1cncc(c1)CC2` [Example D217, 2,4,8,18,22-Pentaazatetracyclo[14.3.1.1(3,7).1(9,13)]docosa-1(20),3(22),4,6,9(21),10,12,16,18-nonaene bis(trifluoroacetate)], the values for the IC50 in experiment [1] (Table D1), in experiment [2] (Table D1) and in experiment [3] (Table D1) were > 400 nM, 103 nM and 53 nM, respectively.
